According to the NIST ThermoML archive (doi:10.1016/j.jct.2011.12.013):

Experiments:
[1] = Liquid, Custom Made Vibrating Tube Densimeter
[2] = xn = mol fraction of the nth substance listed; conditions: Liquid, Custom Made Vibrating Tube Densimeter, x1 = 1

C=C(C)[C@H]1CC=C(C)CC1 [(R)-1-methyl-4-(1-methylethenyl)cyclohexene]
mass density [kg/m3], [1]
Conditions	283.15 K	298.15 K	313.15 K	328.15 K	343.15 K	358.15 K
20000 kPa	862	851.5	841	830.5	820.1	810.2
25000 kPa	864.9	854.5	844.2	833.8	823.7	813.9
30000 kPa	867.7	857.6	847.2	837.2	827.3	817.6
35000 kPa	870.4	860.9	850.3	840.4	831.1	821.3
40000 kPa	873.3	863.4	853.3	843.8	834.6	824.8

C=C1CC[C@H]2C[C@@H]1C2(C)C [(1S,5S)-6,6-dimethyl-2-methylenebicyclo[3.1.1]heptane]
mass density [kg/m3], [1]
Conditions	283.15 K	298.15 K	313.15 K	328.15 K	343.15 K	358.15 K
20000 kPa	891.3	880.2	869.3	858.2	847.7	837
25000 kPa	894.2	883.3	872.6	861.7	851.4	840.9
30000 kPa	897	886.3	875.7	865.2	855	844.8
35000 kPa	899.9	889.3	878.8	868.7	858.6	848.7
40000 kPa	902.6	892.2	882	872.2	862.1	852.6

C=C(C)[C@H]1CC=C(C)CC1 [(R)-1-methyl-4-(1-methylethenyl)cyclohexene] + C=C1CC[C@H]2C[C@@H]1C2(C)C
mass density [kg/m3], [2]
Conditions	283.15 K	298.15 K	313.15 K	328.15 K	343.15 K	358.15 K
20000 kPa	862	851.5	841	830.5	820.1	810.2
25000 kPa	864.9	854.5	844.2	833.8	823.7	813.9
30000 kPa	867.7	857.6	847.2	837.2	827.3	817.6
35000 kPa	870.4	860.9	850.3	840.4	831.1	821.3
40000 kPa	873.3	863.4	853.3	843.8	834.6	824.8
